Here are results for 1 compound from patent US9326972B2, “Use of phenylmethimazoles, methimazole derivatives, and tautomeric cyclic thiones for the treatment of autoimmune/inflammatory diseases associated with toll-like receptor overexpression” (Ohio University, priority 2004, dated 2016).

Test [1] deals with human aortic endothelial cells (HAEC). To be noted: cited from earlier work.
Another test relates to TLR3. Description: TLR3 mRNA in NPA human thyrocytes (Northern). Type of test: cell-based. To be noted: 0.5 mM C10. The method, then:
In order to confirm the presence and functionality of TLR3 in human thyrocytes, we evaluated TLR3 expression in cultured NPA human thyrocytes. NPA thyrocytes are from a papillary carcinoma but are known to retain functional properties of normal thyrocytes. Transfection with dsRNA [Poly (I:C)], but not transfection by dsDNA or incubation with Poly (I:C), was able to increase TLR3 mRNA levels in Northern blots. The dsRNA, but not the dsDNA transfection, could also increase IFN-β mRNA levels, measured as before with PCR. Additionally, as was the case for FRTL-5 cells and dsRNA transfection, IFN-β increased PKR mRNA levels as well as TLR3 RNA levels.
NPA-87 cells are a continuous line of human thyrocytes derived from papillary carcinoma cells. They retain several functional responses including TSH-increased cAMP signaling (J. Xu, et al., J Clin Endocrinol Metab, 88:4990-6 (2003)). They were kindly provided by Dr. Guy Julliard (University of California, Los Angeles, Calif.) and grown in RPMI 1640 medium supplemented with 2 g/liter sodium bicarbonate, 0.14 mM nonessential amino acids, 1.4 mM sodium pyruvate, and 10% fetal bovine serum, pH 7.2.
RNA Isolation and Northern Analysis.

The next test has as its system ApoE−/− mice. The test is described as follows: Atherosclerosis in ApoE−/− mice fed a high fat diet. Type of test: in vivo, mouse. Also noted: key to CORONARY AND MYOCARDIAL VESSELS INFLAMMATION / AORTIC INFLAMMATION: ++++ for severe; + for very mild. The method, then: C10 reduced vascular inflammation in ApoE−/− mice fed a high fat diet: C10 was given i.p. (1 mg/kg) every other day to mice for 8 weeks. Control mice received DMSO alone. Mice were sacrificed at 8 weeks and histopathology examined in different tissues as determined by hematoxylin and eosin staining. In FIG. 15, sections from the base of the aorta in C10 treated (FIG. 15, Panel A) and untreated mice (FIG. 15, Panel B) are presented as well as sections of the coronary artery vasculature in C10 treated (FIG. 15, Panel C) and untreated mice (FIG. 15, Panel D). Vessels in the myocardium were also compared in C10 treated and untreated mice. […] Similarly in Panel D, the picture is representative of long sections of the coronary arteries that were nearly fully occluded with plaque in untreated mice whereas in C10 treated mice (Panel C), coronary arteries were largely unobstructed. Further, even where lesions were evident the lumens of vessels remained patent. Vessels within the myocardium were obstructed by plaque in the absence of C10 but patent and nearly free of plaque in the mice treated with C10. Data are representative of multiple slides taken from multiple animals.
Sections of the coronary arteries and myocardium as well as the base of the aorta were compared in untreated mice vs. C10 treated mice both for extent of lesion, quality of lesion, overexpressed TLR4, overexpressed VCAM-1, and extent of inflammation and plaque. Lesions and observations were qualitatively evaluated using ++++ for severe to + for very mild. […] Evaluation was double blinded.
Experimental animals: Twenty female Apo E−/− mice (Jackson Laboratory), 5 weeks old and weighing 14.5 g (average weight), were divided in 4 groups: (1) animals treated with 10% DMSO; (2) animals treated orally with C-10 in DMSO (1 mg/kg body weight); (3) animals treated I/P with C-10 in DMSO (same dose); and (4) control animals without treatment.
The treatment was done every other day (8 week expt) or every day. The animals were fed on a Western-type diet (TD 88137 from Harlan, Teklan). […]

A further test has as its system C57BL/6J mice. Description: LPS-induced endotoxic shock in C57BL/6J mice: survival and signs of shock. It is filed as in vivo, mouse. To be noted: for Survival % of Control: Toxic Shock model, 10 animals, 1.5 days.
Setting [2] is: C10 1 mg/kg every other day for 8 weeks.
[3] abbreviates: LPS 20 mg/kg i/p, drug i/p 30 min before LPS, 8 mice per group.

Structures are written as SMILES. Marks after values point to notes of the source that are not given here.

Consider `Cn1c(-c2ccccc2)cnc1S` [Compound C10, 5-Phenylmethimazole], for which, in test [1], the “cytokine-induced HAEC expression of VCAM-1 (protein and mRNA)” value is “strongly inhibits”; the “monocytic cell adhesion to cytokine inflamed HAEC under in vitro flow conditions” value is listed as “inhibits”. Further, in test [1] (cytokine-induced, HAEC), the E-selectin expression result is reported as “modest effect” and the ICAM-1 expression entry is listed as “very little effect”. Moreover, the “dsRNA transfection- or IFN-β-increased TLR3 mRNA levels” value with TLR3 is “decreased”. In the test on ApoE−/− mice (setting [2]), the “AORTIC INFLAMMATION” value is reported as “+*” and the “CORONARY AND MYOCARDIAL VESSELS INFLAMMATION” value is recorded as “+*”. In the test on ApoE−/− mice (C10 orally and ip, 4 weeks), the weight gain entry is reported as “decreased”. Besides, the “survival / protection from death after LPS injection” value in the test with C57BL/6J mice (C10 1 mg/kg i/p 30 minutes before LPS 20 mg/kg, 36 hours) is given as 100%. Also, the “survival (cases)” value in the test with C57BL/6J mice (C10 0.1 to 1 mg/kg administered 30 min to 12 hours after lethal LPS injection) is 100%. In the test on C57BL/6J mice (C10-treated LPS mice, as long as observed), the “duration of survival observed” value is recorded as no less than 4 weeks. In addition, the survival in the test on C57BL/6J mice (C10 daily doses of 0.1 or 1 mg/kg, 12 hours after challenge with LPS) was determined as 100%. For the same compound, in the test with C57BL/6J mice (setting [3]), the “Number of surviving mice, 6 hrs” value came out at 8 and the “Number of surviving mice, 12 hrs” value is 8. Besides, the “Signs of shock at 12 hours, % of Animals” value with C57BL/6J mice (LPS-challenged mice) was 100 % of Animals. Also, the “prevention of death vs freshly made C10 i.p. in DMSO” value in the test on C57BL/6J mice (LPS-induced toxic shock, oral excipient-solubilized C10 stored diluted at 4° C. for 8 weeks, 1 mg/kg) was “as effective”. Further, in the test with C57BL/6J mice (1 mg/kg, Ip diluted & stored in DMSO 1 wk), the “Survival % of Control” value turned out to be 0%. Besides, the “Survival % of Control” value in the test on C57BL/6J mice (1 mg/kg, Ip freshly diluted in DMSO) was determined as 100%. Besides, the “Survival % of Control” value in the test with C57BL/6J mice (1 mg/kg, Oral diluted & stored in excipient 6 wks) is listed as 100%. In addition, the “Survival % of Control” value with C57BL/6J mice (1 mg/kg, Oral stored in excipient 1 week) is given as 100%.
